Columns and labels:
[1] = Intrinsic clearance (Cli) in mouse liver microsomes; assay type: in vitro ADME; details: mouse liver microsome
Description: inhibition at top, C= EC50, D= slope, x= inhibitor concentration and y= % inhibition. […]
reach 100% of inhibition, B was fixed to 100 only when at least 50% of inhibition was reached.
Plasmodium falciparum late stage (IV-V) gametocyte high content imaging assay Plasmodium falciparum NF54-pfs16-LUC-GFP stage IV-V Gametocytes were produced as described previously.5 Compounds were solubilized in DMSO and serially diluted in three concentrations per log standard curves in DM SO. One µl of compound was subsequently diluted in 25µl of water (4% DMSO) and 5µl transferred into the base of 384 well PerkinElmer CellCarrier plates. Forty-five µl of stage IV-V gametocytes (10%P in 0.1%H) were added to the imaging plates which were in turn sealed with a gas permeable membrane and incubated at 37°C, 5% CO 2, 5% O2, 90% N2 and 60% humidity […]
Post incubation, 5µl of MitoTracker® Red CM -H2Xros (MTR) solution (0.66ug/ml) was added to all wells and the plates incubated for a further 16hours. The assay plates were then imaged and the number of viable gametocytes determined for test compounds plus 0.4%DMSO and 5µM Puromycin.
(0.4%DMSO) control values. Percent inhibition was plotted against log compound concentration using a 4 parameter log dose, non-linear regression analysis, with sigmoidal dose response (variable slope) curve fit using Prizm 4.0. IC50 values were obtained from this curve fit. The compound testing was performed in duplicate point within two separate experiments.
Plasmodium berghei ookinete development assay
Assay was performed as previously reported.6 Briefly blood containing P. berghei CTRPp-GFP gametocytes was rapidly harvested from infected mice and introduced to test compounds pre-diluted in ookinete medium (to induce gamete formation and support ookinete development) in 96-well plates. Plates were incubated in the dark at 21°C for 22 hr before GFP fluorescence intensity measured in a plate reader. % inhibition of ookinete formation was calculated with reference to the fluorescence intensity values of a positive control (20 µM cycloheximide) and a solvent-only negative control (DMSO). All assays were performed in triplicate independent experiments and EC50 values calculated in Graphpad Prism.
The aqueous solubility of the test compounds was measured using laser nephelometry, as described previously.7 Compounds were subject to serial dilution from 10 mg/mL to 0.5 mg/mL in DMSO. An aliquot was then mixed with MilliQ water to obtain an aqueous dilution plate with a final concentration range of 100 – 5 μg/mL, with a final DMSO concentration of 1.0%. Triplicate aliquots were transferred to a flat bottomed polystyrene plate which was immediately read on the NEPHELOstar (BMG Lab Technologies). The amount of laser scatter caused by insoluble particulates (relative nephelometry units, RNU) was plotted against compound concentration using a segmental regression fit, with the point of inflection being quoted as the compounds aqueous solubility (μg/mL; […]
Intrinsic Clearance (Cli) experiments
The procedure was carried out as reported previously.7 Test compound (0.5 µM) was incubated with female CD1 mouse, male sprague-dawley rat or pooled human mixed gender liver microsomes (Xenotech LLC TM; 0.5 mg/mL 50 mM potassium phosphate buffer, pH 7.4) and the reaction initiated […]
by the addition of excess NADPH (8 mg/mL 50 mM potassium phosphate buffer, pH 7.4).
Immediately, at time zero, then at 3, 6, 9, 15 and 30 min an aliquot (50 μL) of the incubation mixture was removed and mixed with acetonitrile (100 μL) to stop the reaction. Internal standard was added to all samples, the samples centrifuged to sediment precipitated protein and the plates then sealed prior to UPLC-MS/MS analysis using a Quattro Premier XE (Waters Corporation, USA).
XLfit (IDBS, UK) was used to calculate the exponential decay and consequently the rate constant (k) from the ratio of peak area of test compound to internal standard at each timepoint. The rate of […]

Mouse pharmacokinetics = assay type: in vivo, female NMRI mice; details: intravenous at 3 mg/kg
Procedure: (100 µl) was then removed from both acceptor and donor compartments and mixed with acetonitrile (80 µl) containing an internal standard. The samples were centrifuged (10 min, 5 °C, 3270 g) to sediment precipitated protein and sealed prior to UPLC-MS/MS analysis using a Quattro Premier XE (Waters Corp, USA). Pe was calculated as shown in the below equation:
Pe (nm/sec) = 107 x - In [1 - CA (t) / Cequi]
CA(t) = peak area of compound present in acceptor well at time t = 18000 sec Cequi = [CD(t) * VD + CA(t) * VA] / (VD + VA)
VA = acceptor well volume
CD(t) = peak area of compound present in donor well at time t = 18000 sec Recovery of compound from donor and acceptor wells was calculated and data was only accepted when recovery exceeded 70 %.
Human ether-à-go-go related gene (hERG) K+ assay (Outsourced)
Compounds were tested for inhibition of the human ether-à-go-go-related gene (hERG) K+ channel using IonWorks patch clamp electrophysiology. Eight-point concentration-response curves were generated on 2 occasions using 3-fold serial dilutions from the maximum final assay concentration.
Compound was dosed as a bolus solution intravenously (12) at 3mg free base/kg (dose volume: 5 mL/kg; dose vehicle: 10% DMSO, 90% saline) to female NMRI mice (n=3) or dosed orally (12 and 13) by gavage as a solution at 10 mg free base/kg (dose volume: 10mL/kg; Dose vehicle: 5 or 10% DMSO; 40% PEG400; 50 or 55% distilled water) to female NMRI mice (n=3/dose level). Female NMRI mice were chosen as these represent the sex and strain used for the P.berghei mouse model of malaria. Blood samples (10 µl) were taken from each mouse at 5, 15 and 30 minutes, 1, 2, 4, 6, and 8 hours post-dose, mixed with two volumes of distilled water and stored frozen until UPLC-MS/MS analysis. The level of each compound in mouse blood was determined by UPLC-MS/MS as previously reported.9 Pharmacokinetic parameters were derived from the blood concentration time curve using PKsolutions software v 2.0 (Summit Research Services, USA). […]

Row | SMILES | MLM Cli [1] | Clb (Mouse pharmacokinetics)
1 | O=C(NCCN1CCCC1)c1cc(NCCCCN2CCOCC2)nc2ccc(Cl)cc12 [Compound 27, 6-Chloro-2-((4-morpholinobutyl)amino)-N-(2-(pyrrolidin-1-yl)ethyl)quinoline-4-carboxamide] | 2.0 mL min^–1 g^–1 | 4 mL min^–1 kg^–1
2 | O=C(NCCN1CCCC1)c1cc(NCCCN2CCOCC2)nc2ccc(F)cc12 [Compound 25, 6-Fluoro-2-((3-morpholinopropyl)amino)-N-(2-(pyrrolidin-1-yl)ethyl)quinoline-4-carboxamide] | 0.8 mL min^–1 g^–1 | 14 mL min^–1 kg^–1
3 | O=C(NCCN1CCCC1)c1cc(-c2ccc(S(=O)(=O)N3CCOCC3)cc2)nc2ccc(F)cc12 [Compound 38, 6-Fluoro-2-(4-(morpholinosulfonyl)phenyl)-N-(2-(pyrrolidin-1-yl)ethyl)quinoline-4-carboxamide] | 1.9 mL min^–1 g^–1 | –
4 | O=C(NCCN1CCCC1)c1cc(NCCC2CCOCC2)nc2ccc(Cl)cc12 [Compound 30, 6-Chloro-N-(2-(pyrrolidin-1-yl)ethyl)-2-((2-(tetrahydro-2H-pyran-4-yl)ethyl)amino)quinoline-4-carboxamide] | 2 mL min^–1 g^–1 | 34 mL min^–1 kg^–1

Second part, led by results:

Row | MLM Cli [1] | SMILES | Clb (Mouse pharmacokinetics)
5 | <0.5 mL min^–1 g^–1 | O=C(NCCN1CCCC1)c1cc(-c2ccc(CN3CCOCC3)cc2F)nc2ccc(F)cc12 [Compound 41] | –
6 | 0.5 mL min^–1 g^–1 | O=C(NCCN1CCCC1)c1cc(-c2ccc(CN3CCOCC3)cc2Cl)nc2ccc(F)cc12 [Compound 42, 2-(2-Chloro-4-(morpholinomethyl)phenyl)-6-fluoro-N-(2-(pyrrolidin-1-yl)ethyl)quinoline-4-carboxamide] | –

From PMC5108032, “Discovery of a Quinoline-4-carboxamide Derivative with a Novel Mechanism of Action, Multistage Antimalarial Activity, and Potent in Vivo Efficacy” (Journal of Medicinal Chemistry, 2016)
